Assay results published in PMC12396409, “Screening and hit evaluation of a microbial metabolite library against the pathogenic Plasmodium falciparum and Toxoplasma gondii parasites” (International Journal for Parasitology: Drugs and Drug …, 2025).
Where two headings read alike, the source gives them in different places.

Key:
[1] = tested on: P. falciparum 3D7 parasites; assay: P. falciparum growth inhibition assay, 1-cycle (72 h treatment), SYBR DNA staining (library screen at 2 μg/mL and dose-response); type: cell-based, Plasmodium falciparum; conditions: 72 h; for activity at 2 µg/mL: Plasmodium falciparum
[2] = tested on: P. falciparum 3D7 parasites; assay: P. falciparum growth inhibition assay, 2-cycle (120 h treatment), delayed-death screen and dose-response; type: cell-based, Plasmodium falciparum; conditions: 120 h; for activity at 2 µg/mL: Plasmodium falciparum
[3] = tested on: T. gondii RH strain (RH-Tub-eYFP) tachyzoites; assay: microbe, parasite or virus in culture; type: cell-based, Toxoplasma gondii
[4] = P. falciparum, screen at 2 μg/mL, replicate 1
[5] = P. falciparum, screen at 2 μg/mL, replicate 2
[6] = T. gondii, 72 h, screen at 2 μg/mL, replicate 1
[7] = T. gondii, 72 h, screen at 2 μg/mL, replicate 2
[8] = P. falciparum, parasite screen 2 μg/mL, % growth, replicate 1
[9] = P. falciparum, parasite screen 2 μg/mL, % growth, replicate 2
[10] = library screen at 2 μg/mL, % growth, replicate 1
[11] = library screen at 2 μg/mL, % growth, replicate 2

**Q.** Which results are given for `C/C=C(\C)c1cc(O)c(C)c2c1Oc1cc(O)cc(C)c1C(=O)O2` [Unguinol]?
**A.** Pf_72h_%Growth_Rep1 [1, 4]: 95.05%; Pf_72h_%Growth_Rep2 [1, 5]: 130.12%; Pf_120h_%Growth_Rep1 [2, 4]: 111.35%; Pf_120h_%Growth_Rep2 [2, 5]: 108.43%; Tg_72h_%Growth_Rep1 [3, 6]: 147.94%; Tg_72h_%Growth_Rep2 [3, 7]: 82.86%

**Q.** `O=c1c2cccn2c(=O)c2cccn12` [Pyrocoll] was tested. Which Pf_72h_%Growth_Rep1 [1, 8] did it give?
**A.** Its Pf_72h_%Growth_Rep1 is 84.60%.

**Q.** What about the Pf_72h_%Growth_Rep2 [1, 9] of the same compound?
**A.** The Pf_72h_%Growth_Rep2 was 82.90%.

**Q.** And the Pf_120h_%Growth_Rep1 [2, 8]?
**A.** The Pf_120h_%Growth_Rep1 was 85.16%.

**Q.** What about the Pf_120h_%Growth_Rep2 [2, 9] of the same compound?
**A.** Its Pf_120h_%Growth_Rep2 is 138.60%.

**Q.** And the Tg_72h_%Growth_Rep1 ([3]; T. gondii, 72 h, parasite screen 2 μg/mL, % growth, replicate 1)?
**A.** The Tg_72h_%Growth_Rep1 was 94.37%.

**Q.** And the Tg_72h_%Growth_Rep2 ([3]; T. gondii, 72 h, parasite screen 2 μg/mL, % growth, replicate 2)?
**A.** The Tg_72h_%Growth_Rep2 was 83.97%.

**Q.** Which Pf_72h_%Growth_Rep1 [1, 4] does the source give for `CC(=O)O.CC(=O)O.CC[C@H](C)C[C@H](C)CCCCCCCCC(=O)N[C@H]1C[C@@H](O)[C@@H](NCCN)NC(=O)[C@@H]2[C@@H](O)CCN2C(=O)[C@H]([C@H](O)CCN)NC(=O)[C@H]([C@H](O)[C@@H](O)c2ccc(O)cc2)NC(=O)[C@@H]2C[C@@H](O)CN2C(=O)[C@H]([C@@H](C)O)NC1=O` [Caspofungin acetate] here?
**A.** Its Pf_72h_%Growth_Rep1 is 37.83%.

**Q.** What about the Pf_72h_%Growth_Rep2 [1, 5] of the same compound?
**A.** The Pf_72h_%Growth_Rep2 was 84.89%.

**Q.** And the Pf_120h_%Growth_Rep1 [2, 4]?
**A.** Its Pf_120h_%Growth_Rep1 is 148.27%.

**Q.** What about the Pf_120h_%Growth_Rep2 [2, 5] of the same compound?
**A.** The Pf_120h_%Growth_Rep2 was 78.66%.

**Q.** What about the Tg_72h_%Growth_Rep1 [3, 6] of the same compound?
**A.** Its Tg_72h_%Growth_Rep1 is 95.80%.

**Q.** And the Tg_72h_%Growth_Rep2 [3, 7]?
**A.** Its Tg_72h_%Growth_Rep2 is 93.96%.

**Q.** `NC(=O)C#CC(N)=O` [Cellocidin] was tested. Which Pf_72h_%Growth_Rep1 [1, 4] did it give?
**A.** Its Pf_72h_%Growth_Rep1 is 102.17%.

**Q.** And the Pf_72h_%Growth_Rep2 [1, 5]?
**A.** The Pf_72h_%Growth_Rep2 was 89.58%.

**Q.** And the Pf_120h_%Growth_Rep1 [2, 4]?
**A.** Its Pf_120h_%Growth_Rep1 is 151.65%.

**Q.** What about the Pf_120h_%Growth_Rep2 [2, 5] of the same compound?
**A.** Its Pf_120h_%Growth_Rep2 is 95.14%.

**Q.** And the Tg_72h_%Growth_Rep1 [3, 6]?
**A.** The Tg_72h_%Growth_Rep1 was 79.59%.

**Q.** And the Tg_72h_%Growth_Rep2 [3, 7]?
**A.** Its Tg_72h_%Growth_Rep2 is 92.91%.

**Q.** What does the source list for `C=C(C)[C@H](C)CC[C@](C)(O)[C@H]1CC[C@]2(C)[C@@H]1CC[C@@H]1[C@@]3(C)CC[C@H](O)C(C)(C)[C@@H]3CC[C@]12C` [Carnaubadiol]?
**A.** Pf_72h_%Growth_Rep1 [1, 4]: 84.27%; Pf_72h_%Growth_Rep2 [1, 5]: 81.18%; Pf_120h_%Growth_Rep1 [2, 4]: 92.23%; Pf_120h_%Growth_Rep2 [2, 5]: 87.62%; Tg_72h_%Growth_Rep1 [3, 6]: 149.01%; Tg_72h_%Growth_Rep2 [3, 7]: 97.97%

**Q.** Which results are given for `CC(C)[C@@H]1NC(=O)[C@H](C)OC(=O)[C@@H](C(C)C)NC(=O)[C@@H](C(C)C)OC(=O)[C@H](C(C)C)NC(=O)[C@H](C)OC(=O)[C@@H](C(C)C)NC(=O)[C@@H](C(C)C)OC(=O)[C@H](C(C)C)NC(=O)[C@H](C)OC(=O)[C@@H](C(C)C)NC(=O)[C@@H](C(C)C)OC1=O` [Valinomycin]?
**A.** activity at 2 µg/mL ([1]; 3D7, P. falciparum, screen at 2 μg/mL, replicate 1, read-out: Pf_72h_%Growth_Rep1): 81%; activity at 2 µg/mL ([1]; 3D7, P. falciparum, screen at 2 μg/mL, replicate 2, read-out: Pf_72h_%Growth_Rep2): 123%; activity at 2 µg/mL ([2]; 3D7, P. falciparum, screen at 2 μg/mL, replicate 1, read-out: Pf_120h_%Growth_Rep1): 90.6%; activity at 2 µg/mL ([2]; 3D7, P. falciparum, screen at 2 μg/mL, replicate 2, read-out: Pf_120h_%Growth_Rep2): 101%; percent parasite growth at 2 µg/mL ([3]; Toxoplasma gondii; T. gondii, 72 h, screen at 2 μg/mL, replicate 1; read-out: Tg_72h_%Growth_Rep1): 122%; percent parasite growth at 2 µg/mL ([3]; Toxoplasma gondii; T. gondii, 72 h, screen at 2 μg/mL, replicate 2; read-out: Tg_72h_%Growth_Rep2): 85.6%

**Q.** Which Pf_72h_%Growth_Rep1 [1, 10] does the source give for `CC[C@H](C)[C@H]1O[C@]2(C=C[C@@H]1C)C[C@@H]1C[C@@H](C/C=C(\C)[C@@H](O[C@H]3C[C@H](OC)[C@@H](O[C@H]4C[C@H](OC)[C@H](NC)[C@H](C)O4)[C@H](C)O3)[C@@H](C)/C=C/C=C3\CO[C@@H]4[C@H](O)C(C)=C[C@@H](C(=O)O1)[C@]34O)O2` [Emamectin B1a] here?
**A.** The Pf_72h_%Growth_Rep1 was 2.12%.

**Q.** What about the Pf_72h_%Growth_Rep2 [1, 11] of the same compound?
**A.** Its Pf_72h_%Growth_Rep2 is 0.39%.

**Q.** And the Pf_120h_%Growth_Rep1 [2, 10]?
**A.** The Pf_120h_%Growth_Rep1 was 3.81%.

**Q.** What about the Pf_120h_%Growth_Rep2 [2, 11] of the same compound?
**A.** Its Pf_120h_%Growth_Rep2 is 6.54%.

**Q.** And the Tg_72h_%Growth_Rep1 ([3]; library screen at 2 μg/mL, 72 h, % growth, replicate 1)?
**A.** Its Tg_72h_%Growth_Rep1 is 22.56%.

**Q.** What about the Tg_72h_%Growth_Rep2 ([3]; library screen at 2 μg/mL, 72 h, % growth, replicate 2) of the same compound?
**A.** The Tg_72h_%Growth_Rep2 was 92.26%.

**Q.** `CC1=C2C(=CO[C@H](C)[C@H]2C)C(O)=C(C(=O)O)C1=O` [Citrinin] was tested. Which activity at 2 µg/mL ([1]; 3D7, 72 h, P. falciparum, screen at 2 μg/mL, replicate 1, read-out: Pf_72h_%Growth_Rep1) did it give?
**A.** Its activity at 2 µg/mL is 89.1%.

**Q.** What about the activity at 2 µg/mL ([1]; 3D7, 72 h, P. falciparum, screen at 2 μg/mL, replicate 2, read-out: Pf_72h_%Growth_Rep2) of the same compound?
**A.** Its activity at 2 µg/mL is 84%.

**Q.** And the activity at 2 µg/mL ([2]; 3D7, 120 h, P. falciparum, screen at 2 μg/mL, replicate 1, read-out: Pf_120h_%Growth_Rep1)?
**A.** Its activity at 2 µg/mL is 138%.

**Q.** What about the activity at 2 µg/mL ([2]; 3D7, 120 h, P. falciparum, screen at 2 μg/mL, replicate 2, read-out: Pf_120h_%Growth_Rep2) of the same compound?
**A.** Its activity at 2 µg/mL is 82.5%.

**Q.** And the percent parasite growth at 2 µg/mL ([3]; Toxoplasma gondii, 72 h, T. gondii, 72 h, screen at 2 μg/mL, replicate 1; read-out: Tg_72h_%Growth_Rep1)?
**A.** Its percent parasite growth at 2 µg/mL is 87.8%.

**Q.** What about the percent parasite growth at 2 µg/mL ([3]; Toxoplasma gondii, 72 h, T. gondii, 72 h, screen at 2 μg/mL, replicate 2; read-out: Tg_72h_%Growth_Rep2) of the same compound?
**A.** The percent parasite growth at 2 µg/mL was 82%.
